From patent publication US6410792B1, “Amide derivatives and methods for using the same as selective neuropeptide Y receptor antagonists” (Bayer Corporation, priority 1997, dated 2002)
Where a name gives a salt, the structure may show the parent alone. Read-outs that look alike come from different tables or passages of the source.

Experiments:
Human NPY1 receptor = target: T1, Human NPY1 receptor (Homo sapiens, UniProt P25929); assay: Human NPY1 receptor binding assay ([125I]PYY, SK-N-MC cells); settings: [125I]PYY, SK-N-MC cells; read-out: hNPYI IC50
T1 construct: host or cells: SK-N-MC cells
T1 sequence (P25929 1-384): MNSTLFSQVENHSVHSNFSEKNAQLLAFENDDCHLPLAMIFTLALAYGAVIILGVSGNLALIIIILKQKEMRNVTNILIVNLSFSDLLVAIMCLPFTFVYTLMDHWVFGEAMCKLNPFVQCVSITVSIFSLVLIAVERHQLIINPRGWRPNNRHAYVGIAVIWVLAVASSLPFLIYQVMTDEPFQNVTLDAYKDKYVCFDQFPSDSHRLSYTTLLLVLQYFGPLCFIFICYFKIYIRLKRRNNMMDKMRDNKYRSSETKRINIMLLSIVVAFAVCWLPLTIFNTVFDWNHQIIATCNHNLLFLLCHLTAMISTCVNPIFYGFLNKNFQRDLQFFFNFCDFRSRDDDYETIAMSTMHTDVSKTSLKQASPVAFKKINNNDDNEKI
Description: A. Human NPY1 Receptor Binding Assay
This is a modification of Gordon et al., (J. Neurochem. 55:506-513, 1990). SK-N-MC cell (ATCC, Rockville, Md.) were plated in 24-well plates. Once confluent, cells were rinsed with Dulbecco's phosphate buffered saline (DPBS). Cells were then preincubated in binding buffer containing serum-free DMEM, 25 mM HEPES (pH 7.3), 0.5% bovine serum albumin (BSA), 0.1% bacitracin and 0.1 mM phenylmethylsulfonylfluoride for 30 minutes at room temperature. Drug dilution and [125I]PYY (˜50 pM: NEN-DuPont) were added to the wells, and the cells were incubated for an additional 3 hours at room temperature, followed by rinsing with ice-cold DPBS. Nonspecific binding was defined with 1 μM NPY. After lysing the cells with 1% Triton X-100, the amount of radioactivity in the lysates was quantitated with a gamma counter.

Y2 receptor = target: T2, Y2 receptor (Homo sapiens, UniProt P49146); assay: Y2 receptor binding assay ([125I]PYY, membrane protein); settings: [125I]PYY, membrane protein; read-out: hNPY2 IC50
T2 sequence (P49146 1-381): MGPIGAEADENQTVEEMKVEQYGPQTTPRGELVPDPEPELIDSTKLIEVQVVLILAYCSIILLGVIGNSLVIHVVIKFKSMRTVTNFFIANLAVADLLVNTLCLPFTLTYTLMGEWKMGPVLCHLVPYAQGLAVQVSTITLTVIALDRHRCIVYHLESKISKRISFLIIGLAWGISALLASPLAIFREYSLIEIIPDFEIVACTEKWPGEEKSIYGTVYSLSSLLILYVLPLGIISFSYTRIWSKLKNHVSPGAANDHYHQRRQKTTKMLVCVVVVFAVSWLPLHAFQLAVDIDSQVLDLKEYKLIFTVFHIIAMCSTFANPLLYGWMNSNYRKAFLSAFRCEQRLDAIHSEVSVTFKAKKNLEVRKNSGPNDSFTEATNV
Outline: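 Filtration binding with membrane protein and drug dilution, 2 h at room temperature with mixing, radioactivity counted by gamma or scintillation. Y2: 25 pM [125I]PYY in Krebs-Ringer bicarbonate pH 7.4 with 0.01% BSA, nonspecific by 1 μM NPY. Y4/PP1: 50 pM [125I]hPP in HEPES-buffered saline pH 7.4 with protease inhibitors and 0.3% BSA, nonspecific by 1 μM hPP.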

human Y4/PP1 receptor = human Y4/PP1 receptor (Homo sapiens, UniProt P50391); assay: Human Y4/PP1 receptor binding assay ([125I]human PP, membrane protein); settings: [125I]human PP, membrane protein; read-out: hNPY4 IC50
Sequence of human Y4/PP1 receptor (P50391 whole entry): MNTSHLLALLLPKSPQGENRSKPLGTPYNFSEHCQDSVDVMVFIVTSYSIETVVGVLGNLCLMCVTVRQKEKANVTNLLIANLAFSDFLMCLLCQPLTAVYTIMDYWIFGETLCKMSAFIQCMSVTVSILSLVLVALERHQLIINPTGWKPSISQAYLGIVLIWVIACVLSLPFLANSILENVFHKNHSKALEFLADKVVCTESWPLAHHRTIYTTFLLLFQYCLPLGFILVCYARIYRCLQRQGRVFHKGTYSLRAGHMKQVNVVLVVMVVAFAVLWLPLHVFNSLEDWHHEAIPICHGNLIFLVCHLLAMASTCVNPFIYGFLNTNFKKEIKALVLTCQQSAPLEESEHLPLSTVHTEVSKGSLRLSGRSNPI
Description: B. Human Y2 and Y4/PP1 Receptor Binding Assays
Binding assays were performed on GF/C Millipore 96-well plates pretreated with 0.02% polyethylenimine. The binding buffer for rat Y2 binding is Krebs-Ringer bicarbonate (pH 7.4) containing 0.01% BSA and 0.005% bacitracin. Samples consist of membrane protein, 25 pM [1251]PYY and drug dilution. Nonspecific binding is defined by 1 μM NPY. The binding buffer for human Y4/PP1 binding consists of 137 mM NaCl, 5.4 mM KCl, 0.44 mM KH2PO4, 1.26 mM CaCl2, 0.81 mM MgSO4, 20 mM HEPES, 1 mM dithiothreitol, 0.1% bacitracin, 100 mg/l streptomycin sulfate, 1 mg/l aprotinin, 10 mg/ml soybean trypsin inhibitor and 0.3% BSA, pH 7.4. Samples consist of membrane protein, 50 pM human [1251]human PP (hPP: NEN DuPont, Boston, Mass.) and drug dilution. 1 μM hPP is used to define nonspecific binding.
After a 2 hour incubation at room temperature with constant mixing, the samples are aspirated on a vacuum manifold, and rinsed with ice-cold binding buffer. The amount of radioactivity in each well is quantitated with either gamma counting or liquid scintillation.

Human NPY5 receptor = target: T3, Human NPY5 receptor (Homo sapiens, UniProt Q15761); assay: Human NPY5 receptor binding assay ([125I]PYY, membrane protein)
T3 sequence (Q15761 1-445): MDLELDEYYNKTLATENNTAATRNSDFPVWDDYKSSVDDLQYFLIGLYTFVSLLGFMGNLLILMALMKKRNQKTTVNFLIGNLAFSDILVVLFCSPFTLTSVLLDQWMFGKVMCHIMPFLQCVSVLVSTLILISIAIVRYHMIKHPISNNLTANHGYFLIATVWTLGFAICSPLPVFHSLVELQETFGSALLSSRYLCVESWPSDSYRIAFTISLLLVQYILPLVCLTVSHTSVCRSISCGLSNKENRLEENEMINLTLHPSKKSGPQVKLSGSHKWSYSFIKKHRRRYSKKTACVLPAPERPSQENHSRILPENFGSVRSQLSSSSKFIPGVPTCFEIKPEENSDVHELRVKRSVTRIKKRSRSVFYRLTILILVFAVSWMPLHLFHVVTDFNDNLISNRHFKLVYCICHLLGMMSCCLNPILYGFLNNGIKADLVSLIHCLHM
Outline: (§1)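 Compounds compete with porcine [125I]PYY (75-100 pM) for receptor sites on membrane protein over a 2 hour room-temperature incubation at pH 7.4. Unlabelled PYY at 1 μM defines nonspecific binding, and filter-retained radioactivity gives the read-out.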

Rat NPY5 receptor = target: T4, Rat NPY5 receptor (Rattus norvegicus, UniProt Q63634); assay: Rat NPY5 receptor binding assay ([125I]PYY, membrane protein)
T4 sequence (Q63634 1-445): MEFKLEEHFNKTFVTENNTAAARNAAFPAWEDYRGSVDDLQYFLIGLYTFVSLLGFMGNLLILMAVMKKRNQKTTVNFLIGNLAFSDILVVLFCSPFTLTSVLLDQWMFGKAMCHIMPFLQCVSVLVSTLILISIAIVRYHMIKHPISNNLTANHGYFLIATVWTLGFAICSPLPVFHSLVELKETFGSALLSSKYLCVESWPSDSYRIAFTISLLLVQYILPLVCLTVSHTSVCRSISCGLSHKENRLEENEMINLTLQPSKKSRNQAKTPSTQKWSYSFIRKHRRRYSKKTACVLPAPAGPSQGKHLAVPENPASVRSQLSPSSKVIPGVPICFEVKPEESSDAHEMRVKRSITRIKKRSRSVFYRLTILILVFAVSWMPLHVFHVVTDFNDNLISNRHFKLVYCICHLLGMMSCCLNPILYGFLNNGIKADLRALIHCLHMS
Outline: as §1

[1] = [125I]PYY, read-out: hNPY5 IC50
[2] = [125I]PYY, read-out: rNPY5 IC50

IC50 (Human NPY1 receptor) | IC50 (Y2 receptor) | IC50 (human Y4/PP1 receptor) | IC50 (Human NPY5 receptor; [1]) | IC50 (Rat NPY5 receptor; [2]) | Compound | IC50 (Human NPY5 receptor; hNPY5 IC50, [125I]PYY) | IC50 (Rat NPY5 receptor; rNPY5 IC50, [125I]PYY)
> 5 µM | > 5 µM | > 5 µM | 0.135 µM | 0.187 µM | CN(C)c1ccc(NC(=O)CN2CCC(n3c(=O)[nH]c4ccccc43)CC2)cc1 [Compound 353, N-(4-Dimethylamino-phenyl)-2-[4-(2-oxo-2,3-dihydro-benzoimidazol-1-yl)-piperidin-1-yl]acetamide, reference compound] | – | –
> 5 µM | > 5 µM | > 5 µM | 0.91 µM | 1.2 µM | CN(C)c1cccc(NC(=O)CN2CCC(n3c(=O)[nH]c4ccccc43)CC2)c1 [Compound 338, reference compound] | – | –
> 5 µM | > 5 µM | > 5 µM | 0.005 µM | 0.005 µM | Cl.O=C(CN1CCC(n2c(=O)[nH]c3ccccc32)CC1)Nc1ccc(C(=O)C(=O)c2ccccc2)cc1 [Compound 265, 2-[4-(2-Oxo-2,3-dihydro-benzoimidazol-1-yl]-N-[4-(oxo-phenyl-acetyl)-phenyl]-acetamide; hydrochloride] | – | –
> 5 µM | > 5 µM | > 5 µM | 0.73 µM | 0.443 µM | O=C(CN1CCC(n2c(=O)[nH]c3ccccc32)CC1)Nc1ccc(Cl)cc1 [Compound 358, N-(4-Chloro-phenyl)-2-[4-(2-oxo-2,3-dihydro-benzoimidazol-1-yl)-piperidin-1-yl]-acetamide, reference compound] | – | –
> 5 µM | > 5 µM | > 5 µM | 2.3 µM | 1.4 µM | NC(=O)c1ccc(NC(=O)CN2CCC(n3c(=O)[nH]c4ccccc43)CC2)cc1 [Compound 350, 4-(2-[4-(2-Oxo-2,3-dihydro-benzoimidazol-1-yl)-piperidin-1-yl]-acetylamino)-benzamide, reference compound] | – | –
> 5 µM | > 5 µM | > 5 µM | 2.7 µM | 1.7 µM | O=C(CN1CCC(n2c(=O)[nH]c3ccccc32)CC1)Nc1ccc2cn[nH]c2c1 [Compound 344, N-(1H-Indazol-6-yl)-2-[4-(2-oxo-2,3-dihydro-benzoimidazol-1-yl)-piperidin-1-yl]-acetamide, reference compound] | – | –
> 5 µM | > 5 µM | > 5 µM | 0.055 µM | 0.0562 µM | COC(=O)c1ccc(NC(=O)CN2CCC(n3c(=O)[nH]c4ccccc43)CC2)cc1 [Compound 360, 4-(2-[4-(2-Oxo-2,3-dihydro-benzoimidazol-1-yl)-piperidin-1-yl]-acetylamino)-benzoic acid methyl ester, reference compound] | – | –
> 5 µM | > 5 µM | > 5 µM | 0.22 µM | 0.205 µM | CCN(CC)c1ccc(NC(=O)CN2CCC(n3c(=O)[nH]c4ccccc43)CC2)cc1 [Compound 336, N-(4-Diethylamino-phenyl)-2-[4-(2-oxo-2,3-dihydro-benzoimidazol-1-yl)-piperidin-1-yl]-acetamide, reference compound] | – | –
> 5 µM | > 5 µM | > 5 µM | 0.15 µM | 0.15 µM | O=C(CN1CCC(n2c(=O)[nH]c3ccccc32)CC1)Nc1ccc(-c2cnco2)cc1 [Compound 267, N-(4-Oxazol-5-yl-phenyl)-2-[4-(2-oxo-2,3-dihydro-benzoimidazol-1-yl)-piperidin-1-yl]-acetamide; hydrate] | – | –
> 5 µM | > 5 µM | > 5 µM | 0.39 µM | 0.69 µM | O=C(CN1CCC(n2c(=O)[nH]c3ccccc32)CC1)Nc1ccccc1-c1ccccc1 [Compound 324, N-Biphenyl-2-yl-2-[4-(2-oxo-2,3-dihydro-benzoimidazol-1-yl)-piperidin-1-yl]-acetamide; hydrochloride] | – | –
> 5 µM | > 5 µM | > 5 µM | 0.006 µM | 0.004 µM | O=C(CN1CCC(n2c(=O)[nH]c3ccccc32)CC1)Nc1ccc2c(c1)Cc1ccccc1-2 [Compound 325, N-(9H-Fluoren-2-yl)-2-[4-(2-oxo-2,3-dihydro-benzoimidazol-1-yl)-piperidin-1-yl]-acetamide] | – | –

Compound | IC50 (Human NPY1 receptor) | IC50 (Y2 receptor) | IC50 (human Y4/PP1 receptor) | IC50 (Human NPY5 receptor; [1]) | IC50 (Rat NPY5 receptor; [2]) | IC50 (Human NPY5 receptor; hNPY5 IC50, [125I]PYY) | IC50 (Rat NPY5 receptor; rNPY5 IC50, [125I]PYY)
CCCCOc1ccc2ccc(NC(=O)CN3CCC(n4c(=O)[nH]c5ccccc54)CC3)cc2c1 [Compound 343, N-(7-Butoxy-naphthalen-2-yl)-2-[4-(2-oxo-2,3-dihydro-benzoimidazol-1-yl)-piperidin-1-yl]-acetamide, reference compound] | > 5 µM | > 5 µM | > 5 µM | 0.11 µM | 0.045 µM | – | –
O=C(Nc1ccc(C2CCCCC2)cc1)C(c1ccccc1)N1CCC(n2c(=O)[nH]c3ccccc32)CC1 (centres unmarked) [Compound 313, N-(4-Cyclohexyl-phenyl)-2-[4-(2-oxo-2,3-dihydro-benzoimidazol-1-yl)-piperidin-1-yl]-2-phenyl-acetamide] | > 5 µM | > 5 µM | > 5 µM | – | – | 0.035 µM | 0.02 µM
